{
  "source": "patent US9139485B2",
  "about": "“Plant treatment agent” (UNIVERSITI PUTRA MALAYSIA, priority 2011, dated 2015)",
  "key": {"[1]": {"test_system": "Hybrid no. 5 variety (Zea mays L.)", "experiment": "Greenhouse pot experiment: dry weight, N, P, K uptake and use efficiency of maize plant", "type": "in vivo", "conditions": "56 days after planting", "method": "A pot experiment was conducted in a greenhouse of Universiti Putra Malaysia Bintulu Sarawak Campus, Malaysia using randomized complete block design (RCBD) with three replications. Each pot size was 22×28 cm. Each was filled with 10 kg soil (based on bulk density of the soil). Hybrid no. 5 variety (Zea mays L.) was used as the test crop. Its N, P, and K requirement were 60 kg N, 60 kg P2O5 and 40 kg K2O (130 kg ha^−1 urea: 130 kg ha^−1 TSP: 67 kg ha^−1 KCl). The fertilizer requirement was scaled down to per pot basis equivalent to 2.02 g of urea, […]. The volume of water used for each pot was based on field capacity (70%). The three treatments devised for this experiment were as follows: • i. No fertilizer (T0) • ii. 2.02 g urea (T1) • iii. 2.02 g urea+7 L peat soil water (T2)\nAll treatments were applied on the 10th day after planting (DAP). However TSP and KCl which were common to all the treatments were applied on 10 DAP and 28 DAP. The plants were monitored until tassel stage. Tassel stage is the maximum growth stage for plants before they enter productive stage.\nHarvesting was done on the 56th DAP. The whole plant including leaves and stem were harvested. The remaining roots in the soil were removed carefully. They were cleaned using tap and distilled water. The plant parts (leaves, stem and roots) were then oven-dried at 60° C. until constant weight was attained afterwhich they weighed using a digital balance. Soil samples were also taken from the pots, air-dried, pounded and sieved to a pass 2 mm before they were analyzed for pH, exchangeable cations (K, Mg, and Ca), total carbon, total N, available P, exchangeable ammonium and available nitrate, using standard procedures. Each plants part was ground and analyzed for total K, Mg, Ca, Na, N, and P.\nNitrogen, P and K uptake in leaves, stem and roots were determined by multiplying the concentration with the dry weight of the plant parts. Nitrogen, P and K use efficiency were determined by the formula of Pomares-Gracia and Pratt (1987).\nAnalysis of variance (ANOVA) was used to test the effect of treatments while means of treatments were compared using Duncan's Test. Statistical Analysis System (SAS Ver. 9.2) was used for the statistical analysis."}, "[2]": {"experiment": "Selected chemical properties of peat soil water and urea", "type": "physicochemical", "conditions": "glass electrode", "method": "Peat soil water (waste water) was collected from natural flows of peat water at Suai Miri Sarawak, Malaysia. The mineral soil used was Bekenu Series (Fine loamy, siliceous, isohyperthermic, red-yellow to yellow Tipik Tualemkuts). It was sampled in an undisturbed area of Universiti Putra Malaysia Bintulu Sarawak Campus, Malaysia using an auger. The soil taken at 0-15 cm depth was air dried and ground to pass 2.0 mm sieve for laboratory experiment. The soil texture was determined using the hydrometer method (Bouyoucos, 1962) and its field capacity and bulk density determined by the method described by Tan (2005). The pH of the soil was determined in a 1:2 soil:distilled water suspension and KCl using a glass electrode. However, the pH of the peat soil water was determined directly from filtered samples using a glass electrode. The soil total carbon, N and organic matter were determined using LECO CHNS Analyzer (Leco Truspec Micro Elemental Analyzer CHNS, New York). Soil available P was extracted using the double acid method (Tan, 2005) followed by blue method (Murphy and Riley, 1962). The Kjedhal method was used to determine total N. Exchangeable cations were extracted using leaching method and their concentrations were afterwards determined using followed Atomic Absorption Spectrometry (AAS). Soil CEC was determined by the leaching method followed by steam distillation."}},
  "note": "Marks after values point to notes of the source that are not given here.",
  "data": [
    {"smiles": "NC(N)=O", "note": "[Treatment T1, urea]", "values": [
      {"measurement": "dry weight of maize plant, Leaves", "setting": "[1]", "result": "6.00^b g plant^−1"},
      {"measurement": "dry weight of maize plant, Roots", "setting": "[1]", "result": "3.18^b g plant^−1"},
      {"measurement": "dry weight of maize plant, Stems", "setting": "[1]", "result": "5.71^d g plant^−1"},
      {"measurement": "dry weight of maize plant, Total", "setting": "[1]", "result": "14.89^b g plant^−1"},
      {"measurement": "K use efficiency of maize plant", "setting": "[1]; Leaves", "result": "1.17^a %"},
      {"measurement": "N use efficiency of maize plant", "setting": "[1]; Leaves", "result": "1.26^a %"},
      {"measurement": "P use efficiency of maize plant", "setting": "[1]; Leaves", "result": "0.31^a %"},
      {"measurement": "K use efficiency of maize plant", "setting": "[1]; Roots", "result": "1.75^a %"},
      {"measurement": "N use efficiency of maize plant", "setting": "[1]; Roots", "result": "0.37^a %"},
      {"measurement": "P use efficiency of maize plant", "setting": "[1]; Roots", "result": "0.40^a %"},
      {"measurement": "K use efficiency of maize plant", "setting": "[1]; Stem", "result": "2.17^a %"},
      {"measurement": "N use efficiency of maize plant", "setting": "[1]; Stem", "result": "0.24^d %"},
      {"measurement": "P use efficiency of maize plant", "setting": "[1]; Stem", "result": "0.32^a %"},
      {"measurement": "K use efficiency of maize plant", "setting": "[1]; Total", "result": "5.09^a %"},
      {"measurement": "N use efficiency of maize plant", "setting": "[1]; Total", "result": "1.87^a %"},
      {"measurement": "P use efficiency of maize plant", "setting": "[1]; Total", "result": "1.03^a %"},
      {"measurement": "pHw", "setting": "[2]; listed as Urea", "result": 8.00},
      {"measurement": "pHw", "setting": "[2]; listed as urea", "result": "basic"}
    ]}
  ]
}
